The NIST ThermoML archive (doi:10.1016/j.jct.2008.05.014)

Assay: xn = mol fraction of the nth substance listed
Conditions: Liquid; for speed of sound: Pulse-echo method

CCCCCCCCCCCC [dodecane] + CCCCCCC
Conditions	mass density [kg/m3]	speed of sound [m/s]
313.11 K, 75990 kPa, x2 = 0.1014	–	1575.8
313.11 K, 75990 kPa, x2 = 0.3007	–	1560.1
313.11 K, 75990 kPa, x2 = 0.5003	–	1544.4
313.11 K, 75990 kPa, x2 = 0.7007	–	1524.1
313.11 K, 91180 kPa, x2 = 0.1014	–	1630.7
313.11 K, 91180 kPa, x2 = 0.3007	–	1616.4
313.11 K, 91180 kPa, x2 = 0.5003	–	1601.4
313.11 K, 101320 kPa, x2 = 0.3007	–	1651.1
313.11 K, 101320 kPa, x2 = 0.5003	–	1637
313.11 K, 101320 kPa, x2 = 0.7007	–	1618.5
313.12 K, 101 kPa, x2 = 0.8	–	1108.9
313.12 K, 15200 kPa, x2 = 0.5003	–	1261.2
313.12 K, 30390 kPa, x2 = 0.8496	–	1297.9
313.12 K, 45590 kPa, x2 = 0.3007	–	1435.5
313.12 K, 45590 kPa, x2 = 0.8496	–	1375.3
313.12 K, 60790 kPa, x2 = 0.3007	–	1500.5
313.12 K, 60790 kPa, x2 = 0.8496	–	1444.9
313.12 K, 75990 kPa, x2 = 0.8496	–	1508.4
313.12 K, 91180 kPa, x2 = 0.8496	–	1566.8
313.12 K, 101320 kPa, x2 = 0.8496	–	1604
313.13 K, 101 kPa, x2 = 0.2001	–	1199.7
313.13 K, 101 kPa, x2 = 0.5002	–	1159.9
313.13 K, 15200 kPa, x2 = 0.8496	–	1209.3
313.14 K, 101 kPa, x2 = 0.1007	–	1210.7
313.15 K, 101 kPa, x2 = 0	734.369	–
313.15 K, 101 kPa, x2 = 0.0991	730.129	–
313.15 K, 101 kPa, x2 = 0.2008	725.372	–
313.15 K, 101 kPa, x2 = 0.2998	720.306	–
313.15 K, 101 kPa, x2 = 0.3996	714.763	–
313.15 K, 101 kPa, x2 = 0.5	708.645	–
313.15 K, 101 kPa, x2 = 0.6	701.955	–
313.15 K, 101 kPa, x2 = 0.7005	694.545	–
313.15 K, 101 kPa, x2 = 0.7995	686.378	–
313.15 K, 101 kPa, x2 = 0.8486	682.014	–
313.15 K, 101 kPa, x2 = 0.8988	677.238	–
313.15 K, 101 kPa, x2 = 0.9498	672.083	–
313.21 K, 15200 kPa, x2 = 0	–	1313.4
313.21 K, 30390 kPa, x2 = 0	–	1391.1
313.21 K, 45590 kPa, x2 = 0	–	1460.8
313.21 K, 60790 kPa, x2 = 0	–	1524.1
313.21 K, 75990 kPa, x2 = 0	–	1582.5
313.21 K, 91180 kPa, x2 = 0	–	1637.3
313.21 K, 101320 kPa, x2 = 0	–	1671.3
318.15 K, 101 kPa, x2 = 0	730.715	–
318.15 K, 101 kPa, x2 = 0.0991	726.449	–
318.15 K, 101 kPa, x2 = 0.2008	721.654	–
318.15 K, 101 kPa, x2 = 0.2998	716.534	–
318.15 K, 101 kPa, x2 = 0.3996	710.938	–
318.15 K, 101 kPa, x2 = 0.5	704.756	–
318.15 K, 101 kPa, x2 = 0.6	698	–
318.15 K, 101 kPa, x2 = 0.7005	690.511	–
318.15 K, 101 kPa, x2 = 0.7995	682.231	–
318.15 K, 101 kPa, x2 = 0.8486	677.842	–
318.15 K, 101 kPa, x2 = 0.8988	673.004	–
318.15 K, 101 kPa, x2 = 0.9498	667.78	–
318.17 K, 30390 kPa, x2 = 0.9391	–	1264.9
318.17 K, 60790 kPa, x2 = 0.9391	–	1416.7
318.17 K, 75990 kPa, x2 = 0.9391	–	1481.5
318.17 K, 91180 kPa, x2 = 0.9391	–	1540.9
318.17 K, 101320 kPa, x2 = 0.9391	–	1578.8
318.18 K, 15200 kPa, x2 = 0.9391	–	1172.9
318.18 K, 30390 kPa, x2 = 0.4999	–	1327.8
318.18 K, 45590 kPa, x2 = 0.4999	–	1402.2
318.18 K, 45590 kPa, x2 = 0.9391	–	1345
